Drawing on patent US11530229B2, “Cyano cyclobutyl compounds for CBL-B inhibition and uses thereof” (Nurix Therapeutics, Inc., priority 2019, dated 2022), this text covers IC50 and fold induction for four compounds.

Where two headings read alike, the source gives them in different places. Bounds are passed on as bounds.

One assay concerns the target Cbl-b (Homo sapiens (Human), UniProt Q13191). The assay is described as follows: Cbl-b displacement assay (Cbl-b inhibition assay), Biological Example 1. The format is binding. The protocol: Candidate compounds were evaluated for their ability to bind and inhibit Cbl-b, an E3 ubiquitin-protein ligase, as evidenced by their ability to displace a fluorophore-labeled probe (Example 59) bound to Cbl-b.
The ability of candidate compounds to displace a known inhibitor and thereby inhibit Cbl-b activity was measured by monitoring the interaction of Cbl-b with a fluorophore-labeled probe in the presence of the candidate compound. A truncated variant of Cbl-b (UniProt number Q13191; SEQ ID NO:1) containing an Avitag at its N-terminus was co-expressed with BirA biotin ligase and purified using a standard protocol (see Dou et al., Nature Structural and Molecular Biology, 8: 982-987, 2013; Avidity LLC).
Cbl-b Amino Acid Residues 36-427:
Fluorescently-labeled inhibitor probe was synthesized and tagged with BODIPY FL (Example 59). Cbl-b displacement assays were performed in a 384-well plate at room temperature in a 10 μL reaction volume by pre-incubating 0.5 nM Cbl-b or 0.125 nM Cbl-b (final concentration, indicated as “High” and “Low”, respectively) in an assay buffer containing 20 mM HEPES pH 7.5, 150 mM NaCl, 0.01% Triton X-100, 0.01% BSA and 0.5 mM TCEP in the presence of a candidate compound in 1% DMSO (final concentration) for 1 hour. After incubation in the presence of the candidate compound, the plate was incubated for an additional 1 hour in the presence of an approximate EC40 binding saturation consisting of 150 nM fluorescently-labeled inhibitor probe and 2 nM Streptavidin-Terbium (Cisbio) (final concentrations). Following the 1 hour incubation, the plates were read for TR-FRET signal at […] using an Envision plate reader (Perkin Elmer).

For assay [1], the system named is primary human total T-cells. The assay is described as follows: T-cell activation, CD25 surface staining, Biological Example 2. The format is cell-based. To be noted: 48 hours, fold change over baseline; for fold induction at 0.3 µM: 0.3 μM inhibitor; for fold induction at 1 µM: 1 μM inhibitor; for fold induction at 3 µM: 3 μM inhibitor.
Assay [2] deals with primary human total T-cells. The assay is described as follows: T-cell activation, IL-2 secretion, Biological Example 2. The format is cell-based. To be noted: 48 hours, fold change over baseline; for fold induction at 0.3 µM: 0.3 μM inhibitor; for fold induction at 1 µM: 1 μM inhibitor; for fold induction at 3 µM: 3 μM inhibitor.
[3] abbreviates: 0.125 nM Cbl-b final concentration (Low), read-out: Cbl-b activity IC50 (Low).
Where [4] appears, read: read-out: IC50 values in the Cbl-b inhibition assay of Biological Example 1.
The mark [5] stands for this setting: anti-CD3 and anti-CD28 co-stimulation.
Where [6] appears, read: anti-CD3 and anti-CD28 co-stimulation, read-out: CD25 staining CD3/CD28 1 μM.
The mark [7] stands for this setting: anti-CD3 stimulation alone, read-out: CD25 staining CD3 1 μM.
Setting [8] is: anti-CD3 and anti-CD28 co-stimulation, read-out: IL-2 secretion CD3/CD28 1 μM.
Setting [9] is: anti-CD3 stimulation alone, read-out: IL-2 secretion CD3 1 μM.

Chain of Cbl-b (Q13191 36-427): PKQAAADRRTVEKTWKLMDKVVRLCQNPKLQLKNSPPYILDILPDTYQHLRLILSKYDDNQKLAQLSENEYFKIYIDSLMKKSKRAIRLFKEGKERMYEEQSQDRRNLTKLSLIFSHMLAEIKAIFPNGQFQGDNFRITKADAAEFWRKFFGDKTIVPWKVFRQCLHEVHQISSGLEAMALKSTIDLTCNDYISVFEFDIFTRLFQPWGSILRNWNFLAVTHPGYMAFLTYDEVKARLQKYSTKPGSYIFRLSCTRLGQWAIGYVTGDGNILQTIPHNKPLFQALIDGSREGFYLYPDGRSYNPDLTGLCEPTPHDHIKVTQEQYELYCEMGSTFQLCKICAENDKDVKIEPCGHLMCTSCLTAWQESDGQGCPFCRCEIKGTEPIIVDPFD

Take `CCC1CN(Cc2cc3c(c(C(F)(F)F)c2)CN(c2cccc([C@]4(Cc5nncn5C)C[C@@H](C#N)C4)c2)C3=O)CCCO1` (some centres unmarked) [Compound 5, (1r,3r)-3-(3-(6-((2-ethyl-1,4-oxazepan-4-yl)methyl)-1-oxo-4-(trifluoromethyl)isoindolin-2-yl)phenyl)-3-((4-methyl-4H-1,2,4-triazol-3-yl)methyl)cyclobutane-1-carbonitrile]: the IC50 on Cbl-b (setting [3]) and on Cbl-b (setting [4]) was 2 to 5 nM in each case. The figures for the fold induction at 0.3 µM in assay [1] (setting [5]) and in assay [2] (setting [5]) were above 1.39 and above 20, respectively. Besides, the fold induction at 1 µM in assay [1] (setting [6]) was above 1.39; in assay [1] (setting [7]), above 1.15; in assay [2] (setting [8]), above 20; in assay [2] (setting [9]), above 0.85. In addition, the fold induction at 3 µM was above 1.15 in assay [1] (anti-CD3 stimulation alone) and above 0.85 in assay [2] (anti-CD3 stimulation alone).
Take `Cn1cnnc1C[C@]1(c2cccc(N3Cc4c(cc(CN5CCC[C@H](C(F)(F)F)C5)cc4C(F)(F)F)C3=O)c2)C[C@H](C#N)C1` [Compound 14, (1R,3r)-3-((4-methyl-4H-1,2,4-triazol-3-yl)methyl)-3-(3-(1-oxo-4-(trifluoromethyl)-6-(((S)-3-(trifluoromethyl)piperidin-1-yl)methyl)isoindolin-2-yl)phenyl)cyclobutane-1-carbonitrile]: on Cbl-b (setting [3]), the IC50 was in the range of 2 to 5 nM. Moreover, the fold induction at 0.3 µM in assay [1] (setting [5]) was at most 1.24; in assay [2] (setting [5]), 15 to 20. For the same compound, the fold induction at 1 µM in assay [1] (setting [6]) was at most 1.24; in assay [1] (setting [7]) it was at most 1; in assay [2] (setting [8]), 15 to 20; in assay [2] (setting [9]), 0.4 to 0.85. In addition, the fold induction at 3 µM was at most 1 in assay [1] (anti-CD3 stimulation alone) and 0.4 to 0.85 in assay [2] (anti-CD3 stimulation alone).
Turning to `COCC1COCCN(Cc2cc3c(c(C(F)(F)F)c2)CN(c2cccc([C@]4(Cc5nncn5C)C[C@@H](C#N)C4)c2)C3=O)C1` (some centres unmarked) [Compound 46, (1r,3r)-3-(3-(6-((6-(methoxymethyl)-1,4-oxazepan-4-yl)methyl)-1-oxo-4-(trifluoromethyl)isoindolin-2-yl)phenyl)-3-((4-methyl-4H-1,2,4-triazol-3-yl)methyl)cyclobutane-1-carbonitrile], the IC50 at Cbl-b (setting [3]) and on Cbl-b (setting [4]) was 5 to 20 nM in each case. For the same compound, the fold induction at 0.3 µM in assay [1] (setting [5]) was above 1.39; in assay [2] (setting [5]), at most 15. Besides, the fold induction at 1 µM in assay [1] (setting [6]) was above 1.39; in assay [1] (setting [7]), above 1.15; in assay [2] (setting [8]), 15 to 20; in assay [2] (setting [9]), 0.4 to 0.85. For the same compound, the fold induction at 3 µM in assay [1] (anti-CD3 stimulation alone) is above 1.15; in assay [2] (anti-CD3 stimulation alone), above 0.85.
On to `C[C@@H]1C[C@H](C)CN(Cc2cc3c(c(C(F)(F)F)c2)CN(c2cccc([C@]4(Cc5nncn5C)C[C@@H](C#N)C4)c2)C3=O)C1` [Compound 18, (1R,3r)-3-(3-(6-(((3S,5R)-3,5-dimethylpiperidin-1-yl)methyl)-1-oxo-4-(trifluoromethyl)isoindolin-2-yl)phenyl)-3-((4-methyl-4H-1,2,4-triazol-3-yl)methyl)cyclobutane-1-carbonitrile], for which the IC50 at Cbl-b (setting [3]) is below 1 nM. The fold induction at 0.3 µM was 1.24 to 1.39 in assay [1] (setting [5]) and above 20 in assay [2] (setting [5]). For the same compound, the fold induction at 1 µM was 1.24 to 1.39 in assay [1] (setting [6]), 1 to 1.15 in assay [1] (setting [7]), above 20 in assay [2] (setting [8]) and above 0.85 in assay [2] (setting [9]). The fold induction at 3 µM in assay [1] (anti-CD3 stimulation alone) is at most 1; in assay [2] (anti-CD3 stimulation alone), above 0.85.
